Test results: the supplement of paper PMC10307832

Experiments:
Assay in all cases: relative viability (nuclei count vs DMSO), 5 days (fraction); higher = more cells survive
PAC-1 + Tozasertib = compound: C=CCc1cccc(/C=N/NC(=O)CN2CCN(Cc3ccccc3)CC2)c1O [PAC-1] + Cc1cc(Nc2cc(N3CCN(C)CC3)nc(Sc3ccc(NC(=O)C4CC4)cc3)n2)n[nH]1 [Tozasertib] (partner 0.1 µM)
In short: (§1)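 Lung cancer cell lines, seeded in 1536-well plates, were treated the following day by pin tool with a single drug or with five library-drug doses (not always all listed) in √10 steps on top of a fixed anchor-drug dose. Cells were fixed and nuclei stained in one step after 5 days, and nuclei were counted. Relative viability is the nuclei count for treated wells divided by that for vehicle wells, reported as medians of duplicate plates.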

BMX-IN-1 + Pemetrexed = compound: C=CC(=O)Nc1cc(-n2c(=O)ccc3cnc4ccc(-c5ccc(NS(C)(=O)=O)cc5)cc4c32)ccc1C [BMX-IN-1] + Nc1nc2[nH]cc(CCc3ccc(C(=O)N[C@@H](CCC(=O)O)C(=O)O)cc3)c2c(=O)[nH]1 [Pemetrexed] (partner 0.2 µM)
In short: as §1

PAC-1 + Dasatinib = compound: C=CCc1cccc(/C=N/NC(=O)CN2CCN(Cc3ccccc3)CC2)c1O [PAC-1] + Cc1nc(Nc2ncc(C(=O)Nc3c(C)cccc3Cl)s2)cc(N2CCN(CCO)CC2)n1 [Dasatinib] (partner 0.075 µM)
In short: as §1

BMX-IN-1 + Alpelisib = compound: C=CC(=O)Nc1cc(-n2c(=O)ccc3cnc4ccc(-c5ccc(NS(C)(=O)=O)cc5)cc4c32)ccc1C [BMX-IN-1] + Cc1nc(NC(=O)N2CCC[C@H]2C(N)=O)sc1-c1ccnc(C(C)(C)C(F)(F)F)c1 [Alpelisib] (partner 2 µM)
In short: as §1

BMX-IN-1 + Vorinostat = compound: C=CC(=O)Nc1cc(-n2c(=O)ccc3cnc4ccc(-c5ccc(NS(C)(=O)=O)cc5)cc4c32)ccc1C [BMX-IN-1] + O=C(CCCCCCC(=O)Nc1ccccc1)NO [Vorinostat] (partner 1 µM)
In short: as §1

Cell Line: 201T
- relative viability (PAC-1 + Tozasertib; first compound 0.02 µM): 0.876
- relative viability (PAC-1 + Tozasertib; first compound 0.06325 µM): 1
- relative viability (PAC-1 + Tozasertib; first compound 0.2 µM): 0.956
- relative viability (PAC-1 + Tozasertib; first compound 2 µM): 0.883
- relative viability (BMX-IN-1 + Pemetrexed; first compound 0.02 µM): 0.326
- relative viability (BMX-IN-1 + Pemetrexed; first compound 0.2 µM): 0.342
- relative viability (BMX-IN-1 + Pemetrexed; first compound 0.6325 µM): 0.339
- relative viability (BMX-IN-1 + Pemetrexed; first compound 2 µM): 0.351
- relative viability (PAC-1 + Dasatinib; first compound 0.02 µM): 0.571
- relative viability (PAC-1 + Dasatinib; first compound 0.06325 µM): 0.595
- relative viability (PAC-1 + Dasatinib; first compound 0.2 µM): 0.589
- relative viability (PAC-1 + Dasatinib; first compound 2 µM): 0.58
- relative viability (BMX-IN-1 + Alpelisib; first compound 0.02 µM): 1.02
- relative viability (BMX-IN-1 + Alpelisib; first compound 0.2 µM): 1.02
- relative viability (BMX-IN-1 + Alpelisib; first compound 0.6325 µM): 0.987
- relative viability (BMX-IN-1 + Alpelisib; first compound 2 µM): 1.02
- relative viability (BMX-IN-1 + Vorinostat; first compound 0.02 µM): 1.2
- relative viability (BMX-IN-1 + Vorinostat; first compound 0.2 µM): 1
- relative viability (BMX-IN-1 + Vorinostat; first compound 0.6325 µM): 1.05
- relative viability (BMX-IN-1 + Vorinostat; first compound 2 µM): 1.05

Cell Line: A549
- relative viability (BMX-IN-1 + Alpelisib; first compound 0.02 µM): 0.94
- relative viability (BMX-IN-1 + Alpelisib; first compound 0.2 µM): 0.716
- relative viability (BMX-IN-1 + Alpelisib; first compound 0.6325 µM): 0.813
- relative viability (BMX-IN-1 + Alpelisib; first compound 2 µM): 0.762

Cell Line: A-427
- relative viability (PAC-1 + Tozasertib; first compound 0.02 µM): 0.176
- relative viability (PAC-1 + Tozasertib; first compound 0.06325 µM): 0.209
- relative viability (PAC-1 + Tozasertib; first compound 0.2 µM): 0.231
- relative viability (PAC-1 + Tozasertib; first compound 2 µM): 0.2
- relative viability (BMX-IN-1 + Pemetrexed; first compound 0.02 µM): 1.01
- relative viability (BMX-IN-1 + Pemetrexed; first compound 0.2 µM): 1.05
- relative viability (BMX-IN-1 + Pemetrexed; first compound 0.6325 µM): 1.11
- relative viability (BMX-IN-1 + Pemetrexed; first compound 2 µM): 0.992
- relative viability (PAC-1 + Dasatinib; first compound 0.02 µM): 0.77
- relative viability (PAC-1 + Dasatinib; first compound 0.06325 µM): 0.665
- relative viability (PAC-1 + Dasatinib; first compound 0.2 µM): 0.666
- relative viability (PAC-1 + Dasatinib; first compound 2 µM): 0.697
- relative viability (BMX-IN-1 + Alpelisib; first compound 0.02 µM): 1.04
- relative viability (BMX-IN-1 + Alpelisib; first compound 0.2 µM): 1.11
- relative viability (BMX-IN-1 + Alpelisib; first compound 0.6325 µM): 1.04
- relative viability (BMX-IN-1 + Alpelisib; first compound 2 µM): 1.14
- relative viability (BMX-IN-1 + Vorinostat; first compound 0.02 µM): 0.841
- relative viability (BMX-IN-1 + Vorinostat; first compound 0.2 µM): 0.897
- relative viability (BMX-IN-1 + Vorinostat; first compound 0.6325 µM): 0.931
- relative viability (BMX-IN-1 + Vorinostat; first compound 2 µM): 0.856

Cell Line: ABC-1
- relative viability (PAC-1 + Tozasertib; first compound 0.02 µM): 0.144
- relative viability (PAC-1 + Tozasertib; first compound 0.06325 µM): 0.186
- relative viability (PAC-1 + Tozasertib; first compound 0.2 µM): 0.197
- relative viability (PAC-1 + Tozasertib; first compound 2 µM): 0.195
- relative viability (PAC-1 + Dasatinib; first compound 0.02 µM): 0.501
- relative viability (PAC-1 + Dasatinib; first compound 0.06325 µM): 0.495
- relative viability (PAC-1 + Dasatinib; first compound 0.2 µM): 0.541
- relative viability (PAC-1 + Dasatinib; first compound 2 µM): 0.484
- relative viability (BMX-IN-1 + Alpelisib; first compound 0.02 µM): 0.98
- relative viability (BMX-IN-1 + Alpelisib; first compound 0.2 µM): 1.2
- relative viability (BMX-IN-1 + Alpelisib; first compound 0.6325 µM): 1.22
- relative viability (BMX-IN-1 + Alpelisib; first compound 2 µM): 1.12
- relative viability (BMX-IN-1 + Vorinostat; first compound 0.02 µM): 1.34
- relative viability (BMX-IN-1 + Vorinostat; first compound 0.2 µM): 1.6
- relative viability (BMX-IN-1 + Vorinostat; first compound 0.6325 µM): 1.39
- relative viability (BMX-IN-1 + Vorinostat; first compound 2 µM): 1.21

Cell Line: BEN
- relative viability (PAC-1 + Tozasertib; first compound 0.02 µM): 0.621
- relative viability (PAC-1 + Tozasertib; first compound 0.06325 µM): 0.541
- relative viability (PAC-1 + Tozasertib; first compound 0.2 µM): 0.511
- relative viability (PAC-1 + Tozasertib; first compound 2 µM): 0.466
- relative viability (BMX-IN-1 + Pemetrexed; first compound 0.02 µM): 0.701
- relative viability (BMX-IN-1 + Pemetrexed; first compound 0.2 µM): 0.768
- relative viability (BMX-IN-1 + Pemetrexed; first compound 0.6325 µM): 0.866
- relative viability (BMX-IN-1 + Pemetrexed; first compound 2 µM): 0.708
- relative viability (PAC-1 + Dasatinib; first compound 0.02 µM): 0.272
- relative viability (PAC-1 + Dasatinib; first compound 0.06325 µM): 0.366
- relative viability (PAC-1 + Dasatinib; first compound 0.2 µM): 0.318
- relative viability (PAC-1 + Dasatinib; first compound 2 µM): 0.327
- relative viability (BMX-IN-1 + Alpelisib; first compound 0.02 µM): 1.22
- relative viability (BMX-IN-1 + Alpelisib; first compound 0.2 µM): 1.32
- relative viability (BMX-IN-1 + Alpelisib; first compound 0.6325 µM): 0.938
- relative viability (BMX-IN-1 + Alpelisib; first compound 2 µM): 1.04
- relative viability (BMX-IN-1 + Vorinostat; first compound 0.02 µM): 0.621
- relative viability (BMX-IN-1 + Vorinostat; first compound 0.2 µM): 0.517
- relative viability (BMX-IN-1 + Vorinostat; first compound 0.6325 µM): 0.585
- relative viability (BMX-IN-1 + Vorinostat; first compound 2 µM): 0.535

Cell Line: CAL-12T
- relative viability (PAC-1 + Tozasertib; first compound 0.02 µM): 0.265
- relative viability (PAC-1 + Tozasertib; first compound 0.06325 µM): 0.315
- relative viability (PAC-1 + Tozasertib; first compound 0.2 µM): 0.327
- relative viability (PAC-1 + Tozasertib; first compound 2 µM): 0.293
- relative viability (BMX-IN-1 + Pemetrexed; first compound 0.02 µM): 1.27
- relative viability (BMX-IN-1 + Pemetrexed; first compound 0.2 µM): 1.36
- relative viability (BMX-IN-1 + Pemetrexed; first compound 0.6325 µM): 1.37
- relative viability (BMX-IN-1 + Pemetrexed; first compound 2 µM): 1.15
- relative viability (PAC-1 + Dasatinib; first compound 0.02 µM): 0.288
- relative viability (PAC-1 + Dasatinib; first compound 0.06325 µM): 0.393
- relative viability (PAC-1 + Dasatinib; first compound 0.2 µM): 0.459
- relative viability (PAC-1 + Dasatinib; first compound 2 µM): 0.404
- relative viability (BMX-IN-1 + Alpelisib; first compound 0.02 µM): 1.74
- relative viability (BMX-IN-1 + Alpelisib; first compound 0.2 µM): 1.27
- relative viability (BMX-IN-1 + Alpelisib; first compound 0.6325 µM): 1.04
- relative viability (BMX-IN-1 + Alpelisib; first compound 2 µM): 1.32
- relative viability (BMX-IN-1 + Vorinostat; first compound 0.02 µM): 1.11
- relative viability (BMX-IN-1 + Vorinostat; first compound 0.2 µM): 0.951
- relative viability (BMX-IN-1 + Vorinostat; first compound 0.6325 µM): 0.756
- relative viability (BMX-IN-1 + Vorinostat; first compound 2 µM): 0.812

Cell Line: COR-L23
- relative viability (PAC-1 + Tozasertib; first compound 0.02 µM): 0.203
- relative viability (PAC-1 + Tozasertib; first compound 0.06325 µM): 0.304
- relative viability (PAC-1 + Tozasertib; first compound 0.2 µM): 0.192
- relative viability (PAC-1 + Tozasertib; first compound 2 µM): 0.214
- relative viability (BMX-IN-1 + Pemetrexed; first compound 0.02 µM): 0.188
- relative viability (BMX-IN-1 + Pemetrexed; first compound 0.2 µM): 0.204
- relative viability (BMX-IN-1 + Pemetrexed; first compound 0.6325 µM): 0.206
- relative viability (BMX-IN-1 + Pemetrexed; first compound 2 µM): 0.165
- relative viability (PAC-1 + Dasatinib; first compound 0.02 µM): 0.472
- relative viability (PAC-1 + Dasatinib; first compound 0.06325 µM): 0.48
- relative viability (PAC-1 + Dasatinib; first compound 0.2 µM): 0.453
- relative viability (PAC-1 + Dasatinib; first compound 2 µM): 0.506
- relative viability (BMX-IN-1 + Alpelisib; first compound 0.02 µM): 0.95
- relative viability (BMX-IN-1 + Alpelisib; first compound 0.2 µM): 0.962
- relative viability (BMX-IN-1 + Alpelisib; first compound 0.6325 µM): 0.926
- relative viability (BMX-IN-1 + Alpelisib; first compound 2 µM): 0.921
- relative viability (BMX-IN-1 + Vorinostat; first compound 0.02 µM): 0.448
- relative viability (BMX-IN-1 + Vorinostat; first compound 0.2 µM): 0.524
- relative viability (BMX-IN-1 + Vorinostat; first compound 0.6325 µM): 0.635
- relative viability (BMX-IN-1 + Vorinostat; first compound 2 µM): 0.421

Cell Line: COR-L 105
- relative viability (PAC-1 + Tozasertib; first compound 0.02 µM): 0.318
- relative viability (PAC-1 + Tozasertib; first compound 0.06325 µM): 0.323
- relative viability (PAC-1 + Tozasertib; first compound 0.2 µM): 0.383
- relative viability (PAC-1 + Tozasertib; first compound 2 µM): 0.374
- relative viability (BMX-IN-1 + Pemetrexed; first compound 0.02 µM): 1.2
- relative viability (BMX-IN-1 + Pemetrexed; first compound 0.2 µM): 1.07
- relative viability (BMX-IN-1 + Pemetrexed; first compound 0.6325 µM): 1.3
- relative viability (BMX-IN-1 + Pemetrexed; first compound 2 µM): 1.04
- relative viability (PAC-1 + Dasatinib; first compound 0.02 µM): 0.361
- relative viability (PAC-1 + Dasatinib; first compound 0.06325 µM): 0.365
- relative viability (PAC-1 + Dasatinib; first compound 0.2 µM): 0.34
- relative viability (PAC-1 + Dasatinib; first compound 2 µM): 0.412
- relative viability (BMX-IN-1 + Alpelisib; first compound 0.02 µM): 1.33
- relative viability (BMX-IN-1 + Alpelisib; first compound 0.2 µM): 1.05
- relative viability (BMX-IN-1 + Alpelisib; first compound 0.6325 µM): 1.11
- relative viability (BMX-IN-1 + Alpelisib; first compound 2 µM): 0.886
- relative viability (BMX-IN-1 + Vorinostat; first compound 0.02 µM): 0.943
- relative viability (BMX-IN-1 + Vorinostat; first compound 0.2 µM): 0.886
- relative viability (BMX-IN-1 + Vorinostat; first compound 0.6325 µM): 0.996
- relative viability (BMX-IN-1 + Vorinostat; first compound 2 µM): 0.716

Cell Line: Calu-6
- relative viability (BMX-IN-1 + Alpelisib; first compound 0.02 µM): 0.974
- relative viability (BMX-IN-1 + Alpelisib; first compound 0.2 µM): 1.13
- relative viability (BMX-IN-1 + Alpelisib; first compound 0.6325 µM): 1.15
- relative viability (BMX-IN-1 + Alpelisib; first compound 2 µM): 0.919
